# Laboratory results as given in patent publication EP0231622B1, “Inhibition of the 5-lipoxygenase pathway” (priority 1985, dated 1987).
# Read-outs that look alike come from different tables or passages of the source. Marks after values point to notes of the source that are not given here.
# Tests used:
# [1] = system: Arachidonic Acid-Induced Inflammation of the Mouse Ear; assay: Arachidonic acid-induced mouse ear inflammation; assay type: in vivo, Balb/c mice; conditions: for % Inhibition of Ear Swelling: Table 7A, 50 mg/kg s.c. or i.p., NS = not significant; for % Change / Increase in Ear Thickness at 1 Hour (x 10⁻³ cm): Table 7, p.o.
# Text: (§1) In the following Examples where mice were used, they were male Balb/c mice (20-28 g), and where rats were used, they were male Lewis rats (180-210 g). All mice and rats were obtained from Charles River Breeding Laboratories, Kingston, N.Y. Within a single experiment, mice and rats were sex and age matched.
# (§2) The compounds of Formula (IA) were used either as the free base or in the appropriate salt form. Levamisole was used as the hydrochloride salt. The compounds were homogenized in 0.5% tragacanth. Compounds were administered by gavage at the indicated dose in a final volume of 10 ml/kg. Nordihydroguaiaretic acid (NDGA) was solubilized in dimethylacetamide and diluted with olive oil for subcutaneous administration.
# Arachidonic acid in acetone (2 mg/20 ul) was applied to the inner surface of the left ear. The thickness of both ears was then measured with a dial micrometer one hour after treatment, and the data were expressed as the change in thickness (10⁻³ cm) between treated and untreated ears.
# Test compounds were given orally in 0.5% tragacanth at the times indicated in the text prior to the topical application of arachidonic acid.
# Parenteral administration of compound was accomplished by subcutaneous injection of solution as indicated.
# [2] = system: Polymorphonuclear Leukocytes; assay: Mouse Carrageenan Peritonitis (PMN infiltration); assay type: in vivo, Balb/c mice
# Text: as §1, §2
# Mice were pretreated with either the test compound or vehicle one hour before the intraperitoneal injection of a 1.0% carrageenan suspension in saline (0.2 ml/ mouse). Mice were sacrificed by cervical dislocation two hours after injection, and 3.0 ml of phosphate buffered saline, without Ca⁺⁺ or Mg⁺⁺, was injected into the peritoneum. Following massage, a 2.0 ml aliquot of the lavage fluid was removed, and the total cell count determined on a Coulter counter and differential cell count determined by microscopic examination of Giesma-stained slides.
# [3] = target: T1, 5-LO (Rattus norvegicus, UniProt P12527); assay: di-HETE production by RBL-1 high speed supernatant; assay type: biochemical; conditions: Table 9A; di-HETE production by RBL-1 high speed supernatant; read-out: 5-LO IC50
# T1 construct: The activities of these enzymes in extracts of RBL-1 cells were assayed; host or cells: RBL-1 cells, disrupted by nitrogen cavitation; 10,000 x g or 100,000 x g supernatant
# T1 sequence (P12527 1-673): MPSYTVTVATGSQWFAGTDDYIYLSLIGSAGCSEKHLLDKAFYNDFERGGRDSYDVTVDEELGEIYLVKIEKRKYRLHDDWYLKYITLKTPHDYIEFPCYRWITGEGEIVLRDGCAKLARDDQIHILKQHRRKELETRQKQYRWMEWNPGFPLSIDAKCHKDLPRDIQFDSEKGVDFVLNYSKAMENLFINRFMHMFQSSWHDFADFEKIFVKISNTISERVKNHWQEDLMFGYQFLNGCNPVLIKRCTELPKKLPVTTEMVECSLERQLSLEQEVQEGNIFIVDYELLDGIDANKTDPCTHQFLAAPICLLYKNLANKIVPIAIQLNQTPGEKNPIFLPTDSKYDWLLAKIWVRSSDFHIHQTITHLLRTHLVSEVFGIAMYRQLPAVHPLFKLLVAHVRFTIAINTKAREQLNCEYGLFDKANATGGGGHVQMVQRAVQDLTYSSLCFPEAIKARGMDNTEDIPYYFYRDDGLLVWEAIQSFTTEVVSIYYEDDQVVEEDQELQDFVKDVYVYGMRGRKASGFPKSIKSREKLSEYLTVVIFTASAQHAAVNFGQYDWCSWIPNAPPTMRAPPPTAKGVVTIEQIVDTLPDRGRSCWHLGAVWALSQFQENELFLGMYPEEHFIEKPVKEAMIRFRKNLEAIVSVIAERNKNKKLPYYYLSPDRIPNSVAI
# Description: (§3) For in vitro experiments, compounds were dissolved at appropriate concentrations in ethanol or DMSO (dimethylsulfoxide) (final concentration <1.0%) and then diluted to final concentrations using the buffers indicated in the text.
# (§4) The activities of these enzymes in extracts of RBL-1 cells were assayed using the method of Jakschik and Lee, Nature, 287, 51-52 (1980). RBL-1 cells were obtained from the American Type Culture Collection (#CRL 1378) and were grown at 37°C (5% CO₂ in air) in spinner culture in MEM supplemented with 10% heat inactivated fetal calf serum. Harvested cells were washed with 50 mM sodium phosphate buffer, pH 7.0, containing 1 mM EDTA and 0.1% gelatin, resuspended in fresh buffer (5 x 10⁷ cells/ml) and disrupted by nitrogen cavitation using the Parr bomb at 750 psi for 10 min. The broken cell extract was then centrifuged at 10,000 x g for 20 minutes and the supernatant centrifuged at 100,000 x g for 60 minutes. Aliquots (0.25 mls) of the supernatant were preincubated with or without drugs for 10 min, after which 10 ul CaCl₂ (50 mM) was added and the reaction was initiated with 2.5 ul of 2.5 mM arachidonic acid-1-¹⁴C (final concentration was […]; specific activity 20,000 dpm/nmole). After incubation for 3 min at 37°C, the reaction was terminated by addition of 2 volumes (0.5 ml) ice cold acetone and the sample was allowed to deproteinize on ice for 10 min prior to centrifugation at 1,000 x g for 10 min. The deproteinized supernatant was adjusted to pH 3.5 with 2N formic acid and extracted with 2 volumes of ice cold ethyl acetate. The extracted samples were dried under argon, redissolved in ethyl acetate and applied to Whatman LK5D thin layer chromatography (TLC) plates which were developed using the A-9 solvent system [organic phase of ethyl acetate: 2,2,5-trimethylpentane:acetic acid: water (110:50:20:10)] described by Hamberg and Samuelsson, J. Biol. Chem., 241, 257-263 (1966). Arachidonic acid, 5-HETE, di-HETE and PGD₂ were quantified with a Berthold LB 2832 autoscanner.
# (§5) The 5-lipoxygenase and LTA₄ synthetase activities were further studied under the following conditions. An additional centrifugation of the RBL-1 supernatant was run at 100,000 x g for 60 min, to remove the particulate cyclooxygenase activity. Sample incubation was done under conditions similar to those described above, i.e., 2 mM CaCl₂ and 25 uM arachidonic acid-1-¹⁴C, however, with an incubation time of 5 min at […]. Under these conditions, only the 5-lipoxygenase pathway metabolites were detectable. The 5-HETE and di-HETEs were formed at a linear rate, and […] amounts of the arachidonic acid-1-¹⁴C substrate were utilized.
# [4] = target: T2, 5-Lipoxygenase (Rattus norvegicus, UniProt P12527); assay: 5-HETE production by RBL-1 high speed supernatant; assay type: biochemical; conditions: Table 8A; RBL-1 high speed supernatant
# T2 construct: The activities of these enzymes in extracts of RBL-1 cells were assayed; host or cells: RBL-1 cells, disrupted by nitrogen cavitation; 10,000 x g or 100,000 x g supernatant
# T2 sequence (P12527 1-673): T1 sequence (P12527 1-673)
# Description: as §3, §4, §5
# [5] = system: Arachidonic Acid-Induced Cellular Infiltration; assay: Arachidonic acid-induced air pouch inflammation; assay type: in vivo, Lewis rats; conditions: 100 mg/kg; 3 hours after arachidonic acid
# Text: as §1, §2
# (§6) Rats were shaved on the dorsal flank, and then injected subcutaneously one day later with 20 ml of air to form a defined pouch, by the method of Sedgwick et al., J. Pathology, 141, 483-495 (1983). The air pouch was reinflated as necessary over the next 6 days. To assay anti-inflammatory activity, animals were treated orally with test compound or vehicle (10 ml/kg) one hour before injection of 2.0 ml of a 2.0% carrageenan suspension containing 200 units/ml penicillin and 100 »g/ml streptomycin into the air pouch. In other experiments, 5 ml of 0.1% arachidonic acid in 0.2 M bicarbonate buffer was injected two hours after drug treatment. Animals were sacrificed using CO₂ three hours after instillation of irritant. The exudate was then aspirated from the pouch and neutrophil count and differential cell count were measured.
# [6] = system: Carrageenan-Induced Cellular Infiltration; assay: Carrageenan-induced air pouch inflammation; assay type: in vivo, Lewis rats; conditions: 100 mg/kg; 3 hours after carrageenan
# Text: as §1, §2, §6
# [7] = system: Production of PGE₂ by Mouse Peritoneal Exudate Cells; assay: PGE2 production by peritoneal macrophages; assay type: cell-based
# Description: as §3
# Mice were injected intraperitoneally with 350 »g Corynebacterium parvum and the peritoneal exudate cell population was harvested 12-14 days later by peritoneal lavage with cold phosphate-buffered saline, and resuspended in Eagles minimal essential medium supplemented with 5% fetal calf serum. […] Test compounds were added (100 ul) to bring the final volume to 1.0 ml. Lipopolysaccharide (5 »g/ml) was then added to stimulate PGE₂ synthesis. After incubation at 37°C for 2 hours, cell-free supernatants were harvested, placed in polypropylene tubes and frozen at -20°C until assayed for their PGE₂ content using a commercial radioimmunoassay kit. IC₅₀ is the concentration that inhibits 50% of control activity.
# [8] = system: Arachidonic Acid-Induced Rat Paw Edema; assay: Arachidonic acid-induced rat paw swelling; assay type: in vivo, Lewis rats; conditions: 100 mg/kg, read at 2 hours
# Text: as §1, §2
# [9] = Table 2, Experiment 1, 12.5 mg/kg, p.o.
# [10] = Table 2, Experiment 1, 25 mg/kg, p.o.
# [11] = Table 2, Experiment 1, 50 mg/kg, p.o.
# [12] = Table 2, Experiment 2, 50 mg/kg, s.c.
smiles,measurement,setting,value
COc1ccc(-c2nc3n(c2-c2ccncc2)CC[S+]3[O-])cc1 (stereo not drawn) [Compound 41],% Inhibition of Ear Swelling,[1],45*** %
C[C@@H]1C[C@H]2[C@@H]3CCC4=CC(=O)C=C[C@]4(C)[C@@]3(F)[C@@H](O)C[C@]2(C)[C@@]1(O)C(=O)CO [Dexamethasone],% Change,"[1]; 25 mg/kg, pretreated at 2 hrs",-35^c %
same,Increase in Ear Thickness at 1 Hour (x 10⁻³ cm),"[1]; 25 mg/kg, pretreated at 2 hrs",18.2 ± 4.1 x 10⁻³ cm
same,% Change,[2]; [9],-54^b %
same,PMN x 10⁻⁵/ml (mean ± S.D.),[2]; [9],9.1 ± 2.0 x 10⁻⁵/ml
same,% Change,[2]; [10],-55^b %
same,PMN x 10⁻⁵/ml (mean ± S.D.),[2]; [10],8.8 ± 2.6 x 10⁻⁵/ml
same,% Change,[2]; [11],-69^b %
same,PMN x 10⁻⁵/ml (mean ± S.D.),[2]; [11],6.1 ± 1.5 x 10⁻⁵/ml
"Fc1ccc(-c2nc3n(c2-c2ccncc2)CCC3)cc1 [Compound 39, 2-(4-fluorophenyl)-3-(4-pyridyl)-6,7-dihydro-[5H]-pyrrolo [1,2-a]imidazole]",% Inhibition of Ear Swelling,[1],93%
same,IC50,[3],32 µM
same,IC50,[4],67 µM
"CC(Cc1ccc(O)c(O)c1)C(C)Cc1ccc(O)c(O)c1 (stereo not drawn) [NDGA, Nordihydroguaiaretic acid]",% Change,[2]; [12],41^c %
same,PMN x 10⁻⁵/ml (mean ± S.D.),[2]; [12],5.7 ± 2.1 x 10⁻⁵/ml
[O-][S+]1CCn2c1nc(-c1ccncc1)c2-c1ccc(F)cc1 (stereo not drawn) [Compound 42],% Inhibition of Ear Swelling,[1],50*** %
same,IC50,[3],60 µM
same,IC50,[4],101 µM
"CN(C)c1ccc(-c2c(-c3ccc(F)cc3)nc3n2CCS3)cc1 [Compound 10, 5-(4-N,N-Dimethylaminophenyl)-6-(4-fluorophenyl)-2,3-dihydroimidazo[2,1-b]thiazole]",% Inhibition of Ear Swelling,[1],17* %
same,IC50,[3],1.5 µM
same,IC50,[4],5 µM
O=C1CCN(c2ccccc2)N1 [Phenidone],Cellular Infiltrate (Total x 10⁻⁶) MN,[5],2.2 ± 1.5^d x 10⁻⁶
same,Cellular Infiltrate (Total x 10⁻⁶) PMN,[5],1.3 ± 0.8^e x 10⁻⁶
same,Exudate Volume,[5],2.8 ± 0.4 mL
same,ED50,"[1]; Mus musculus, po, 1 hour after 2 mg of arachidonic acid to the ear, read-out: ED₅₀ (inhibition of the edematous response of the ear)",44 mg/kg
same,% Change,[1]; 50 mg/kg,-57^b %
same,Increase in Ear Thickness at 1 Hour (x 10⁻³ cm),"[1]; 50 mg/kg, 15 minutes before arachidonic acid",12.2 ± 1.6 x 10⁻³ cm
same,Cellular Infiltrate (Total x 10⁻⁶) MN,[6],3.5 ± 1.4 x 10⁻⁶
same,Cellular Infiltrate (Total x 10⁻⁶) PMN,[6],1.7 ± 0.6^d x 10⁻⁶
same,Exudate Volume,[6],1.5 ± 0.8 mL
same,IC50,"[7]; Macrophage, read-out: IC₅₀ production of PGE₂ by inflammatory macrophages",28 µM
same,IC50,"[7]; Peritoneal macrophage, Table 10, LPS-stimulated, C. parvum-elicited peritoneal exudate cells, read-out: IC₅₀ (»M) production of PGE₂",28 µM
same,% Change,"[2]; Table 1, 50 mg/kg, p.o.",-51^c %
same,PMN x 10⁻⁵/ml (mean ± S.D.),"[2]; Table 1, 50 mg/kg, p.o.",5.30 ± 2.25 x 10⁻⁵/ml
same,PMN x 10⁻⁵/ml (mean ± S.D.),"[2]; Table 1, 100 mg/kg, p.o., 1 h before i.p. carrageenan, read 2 h later",6.97 ± 3.81 x 10⁻⁵/ml
same,% Change,"[2]; Table 1, 100 mg/kg, p.o., PMN vs vehicle",-36^d %
same,% Change,"[2]; Table 1, 200 mg/kg, p.o.",-94^b %
same,PMN x 10⁻⁵/ml (mean ± S.D.),"[2]; Table 1, 200 mg/kg, p.o.",0.66 ± 0.53 x 10⁻⁵/ml
same,Change in Paw Volume,[8]; one hour before arachidonic acid,0.13 ± 0.05 mL
same,(% Inhibition) of change in paw volume,[8],52%
